Experimental data: PubChem BioAssay (NCI)
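1) Cells in 96-well plates. 2) Compound, 48 h, 5 concentrations. 3) Linear interpolation between surrounding doses. 4) Unreached endpoint = highest concentration. Definition used: TGI = concentration required for complete inhibition of growth.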

Assays:
Assay in all cases: inhibition of tumour cell growth, NCI panel, 48 h
[1] = system: ACHN renal
[2] = system: BT-549 breast
[3] = system: HS 578T breast
[4] = system: HT29 colon
[5] = system: KM12 colon
[6] = system: OVCAR-5 ovarian
[7] = system: SF-295 CNS
[8] = system: SK-MEL-2 melanoma
[9] = system: SK-MEL-5 melanoma
[10] = system: SNB-75 CNS
[11] = system: U251 CNS
[12] = system: DMS 273 small cell lung
[13] = system: SNB-78 CNS

Compound	TGI [1]	TGI [2]	TGI [3]	TGI [4]	TGI [5]	TGI [6]	TGI [7]	TGI [8]	TGI [9]	TGI [10]	TGI [11]	TGI [12]	TGI [13]
C/C=C\C(CC(=O)NCC(=O)c1c[nH]c2ccccc12)CC(=O)OC (stereo not drawn)	> 100 µM	> 100 µM	> 100 µM	> 100 µM	> 100 µM	> 100 µM	> 100 µM	> 100 µM	> 100 µM	> 100 µM	> 100 µM	–	–
CN1CC=C(c2c(N)nc(N)[nH]c2=O)CC1	> 100 µM	> 100 µM	> 100 µM	> 100 µM	> 100 µM	> 100 µM	> 100 µM	> 100 µM	> 100 µM	> 100 µM	> 100 µM	–	–
O=[N+]([O-])c1c(F)c(F)c2c(c1F)N(CCCCCl)c1ccccc1S2	30.4 µM	28 µM	74.4 µM	6.74 µM	23.5 µM	33.6 µM	31.1 µM	8.18 µM	32.7 µM	17.2 µM	25.3 µM	–	–
Cc1ccnc2c1C(=O)C1=C(OC(C)(C)CC1O)C2=O (stereo not drawn)	22.9 µM	12.7 µM	15.2 µM	10.8 µM	15 µM	20.6 µM	8.79 µM	8.83 µM	2.6 µM	0.297 µM	13.2 µM	–	–
CN1CCc2c(sc3[nH]c(=S)[nH]c(=S)c23)C1	> 100 µM	> 100 µM	> 100 µM	> 100 µM	> 100 µM	> 100 µM	> 100 µM	> 100 µM	> 100 µM	> 100 µM	> 100 µM	–	–
Cc1n[n+](Cc2ccccc2)c2sc(N)nn12	> 100 µM	> 100 µM	> 100 µM	> 100 µM	> 100 µM	> 100 µM	> 100 µM	> 100 µM	> 100 µM	> 100 µM	> 100 µM	–	–
CCOC(=O)c1c(OCC)[nH]c(=O)c(C(c2cccs2)c2c(O)c(C(=O)OCC)c(OCC)[nH]c2=O)c1O	25.4 µM	22.7 µM	> 100 µM	35.3 µM	42.9 µM	> 100 µM	49.6 µM	29.9 µM	25.5 µM	9.72 µM	30.3 µM	–	–
CC(=O)OC(CCC1(C)OC1COc1ccc(CCNC(=O)C=C(C)C)cc1)C(C)(C)OC(C)=O (stereo not drawn)	> 100 µM	25.4 µM	> 100 µM	> 100 µM	78.4 µM	> 100 µM	> 100 µM	> 100 µM	15.6 µM	98.1 µM	> 100 µM	> 100 µM	> 100 µM
Cc1ccc(S(=O)(=O)C2=C(C(C)C)N=NC2(C)C)cc1	> 100 µM	> 100 µM	> 100 µM	> 100 µM	> 100 µM	> 100 µM	> 100 µM	> 100 µM	> 100 µM	> 100 µM	> 100 µM	–	–
COc1cc2nc(-c3cccs3)nc(Cl)c2cc1OC	> 100 µM	> 100 µM	> 100 µM	> 100 µM	> 100 µM	> 100 µM	> 100 µM	> 100 µM	> 100 µM	> 100 µM	> 100 µM	–	–
O=P1(Cc2ccccc2)N(Cc2ccccc2)[C@@H]2CCCC[C@H]2N1Cc1ccccc1	25.5 µM	33.8 µM	26.5 µM	18.6 µM	22.4 µM	24.7 µM	21.1 µM	25.4 µM	3.57 µM	21.1 µM	25.5 µM	–	–
Cc1c2ccc3ccccc3c2c[n+]2ccccc12	> 100 µM	14.3 µM	14.9 µM	> 100 µM	12 µM	> 100 µM	24.8 µM	31 µM	21.9 µM	14.3 µM	15.6 µM	> 50.2 µM	> 100 µM
O=C1/C(=C\c2cccc(Oc3ccccc3)c2)S(=O)(=O)C(c2ccccc2)N1c1cccc(Cl)c1 (stereo not drawn)	> 100 µM	> 100 µM	> 100 µM	> 100 µM	> 100 µM	> 100 µM	> 100 µM	> 100 µM	> 100 µM	> 100 µM	> 100 µM	–	–
CS(=O)(=O)N1CC(CCl)c2ccc(O)cc21 (stereo not drawn)	12.4 µM	8.35 µM	90.9 µM	14.2 µM	7.83 µM	16.3 µM	11.6 µM	8.94 µM	3.46 µM	8.4 µM	10.3 µM	–	–
NCCCNCCCCN1CCOC1=O	> 100 µM	> 100 µM	> 100 µM	> 100 µM	> 100 µM	> 100 µM	> 100 µM	> 100 µM	> 100 µM	> 100 µM	> 100 µM	–	–
N#Cc1cc2c(cc1Cl)Sc1nnc(Nc3ccccc3)n1S2(=O)=O	3.32 µM	8.12 µM	6.63 µM	6.91 µM	4.65 µM	3.8 µM	9.2 µM	8.26 µM	6.84 µM	10.7 µM	3.6 µM	–	–
O=C(Cn1c2ccc(Br)cc2c2nc3ccccc3nc21)NNC(=S)NC1CCCCC1	29.6 µM	42.8 µM	52.9 µM	28.9 µM	48.2 µM	38.9 µM	25.7 µM	40.4 µM	28 µM	47.5 µM	28.3 µM	–	–
COCCn1cnc2c(Cl)nc(Nc3ccccc3)nc21	36.4 µM	99 µM	61.6 µM	> 100 µM	> 100 µM	> 100 µM	> 100 µM	47.4 µM	> 100 µM	> 100 µM	> 100 µM	–	–
CCOC(=O)C(Cc1ccc(O)cc1)Nc1nc(=O)c2c(=O)oc(Cl)cc2o1 (stereo not drawn)	24.7 µM	14.1 µM	11.1 µM	13.2 µM	22.5 µM	34.7 µM	29.8 µM	34.3 µM	> 49 µM	18.6 µM	21.9 µM	–	–
